Experimental data reported in patent US7935506B2, “Method for producing a lower alkyl ester of α-L-aspartyl-L-phenylalanine” (priority 2001, dated 2011).

Columns and labels:
Type in all cases: cell-based
Settings in all cases: 37° C.
[1] = system: E. coli strain TG1 (pUC19); experiment: Growth on M9 glucose minimal agar plates containing inhibitor, strain TG1 (pUC19)
Method: (§1) The pYDDG1 and pYDDG2 plasmids and the pUC19 and pAYCTER3 vectors were introduced into E. coli strain TG1. Thus the strains TG1 (pYDDG1), TG1 (pYDDG2), TG1 (pUC19) and TG1 (pAYCTER3) were obtained.
(§2) Then the ability of these strains to grow in the presence of amino acids and amino acid analogues for each strain were determined on M9 glucose minimal agar plates containing graded concentrations of inhibitor. The plates were spotted with 10^6 to 10^7 cells from an overnight culture grown in a minimal medium (supplemented with 100 μg/ml of ampicillin for plasmid strains). The growth was estimated after 44 h incubation at 37° C.

[2] = system: E. coli strain TG1 (pYDDG1); experiment: Growth on M9 glucose minimal agar plates containing inhibitor, strain TG1 (pYDDG1)
Method: as §1, §2

[3] = system: E. coli strain TG1 (pYDDG2); experiment: Growth on M9 glucose minimal agar plates containing inhibitor, strain TG1 (pYDDG2)
Method: as §1, §2
Note: key: +: good growth; ±: pour growth; −: no growth.

For `NC(Cc1c[nH]c2ccc(F)cc12)C(=O)O` (racemic) [5-fluoro-DL-tryptophane], the “Growth after 44 h TG1 (pUC19)” value ([1]; substrate 0.0005 mg/ml) was “−” and the “Growth after 44 h TG1 (pYDDG1)” value ([2]; substrate 0.0005 mg/ml) was “+”.

In the case of `NC(Cc1ccc(F)cc1)C(=O)O` (racemic) [p-fluoro-DL-phenylalanine], the “Growth after 44 h TG1 (pUC19)” value ([1]; substrate 1.0 mg/ml) is reported as “−”, the “Growth after 44 h TG1 (pUC19)” value ([1]; substrate 2.0 mg/ml) is reported as “−” and the “Growth after 44 h TG1 (pYDDG2)” value ([3]; substrate 1.0 mg/ml) is reported as “+”. For the same compound, the “Growth after 44 h TG1 (pYDDG2)” value ([3]; substrate 2.0 mg/ml) was “−”, the “Growth after 44 h TG1 (pYDDG1)” value ([2]; substrate 1.0 mg/ml) was “+” and the “Growth after 44 h TG1 (pYDDG1)” value ([2]; substrate 2.0 mg/ml) was “+”.

For `N[C@@H](Cc1ccccc1)C(=O)O` [L-phenylalanine], the “Growth after 44 h TG1 (pUC19)” value ([1]; substrate 20.0 mg/ml) was “−”, the “Growth after 44 h TG1 (pYDDG2)” value ([3]; substrate 20.0 mg/ml) was “±” and the “Growth after 44 h TG1 (pYDDG1)” value ([2]; substrate 20.0 mg/ml) was “+”.
